Molecular target: T1, Bcl-2 protein (Recombinant Human Bcl-2 Protein) (Homo sapiens, UniProt P10415)
T1 construct: purchased Novus NBP2-34889
Assay: Binding evaluation of mixture library compounds to Bcl-2 using AS-MS (affinity selection mass spectrometry)
Conditions: AS-MS on the mixture of 1200 library compounds, ASMS Ratio(%)=(A−C)/B×100; for ASMS ratio (%) n = 1: replicate n = 1; for ASMS ratio (%) n = 2: replicate n = 2
In short: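 Pooled library of ~1200 compounds ([…] each, final) incubated with recombinant human Bcl-2 (20 μM final) in Tris-HCl pH 7.4, NaCl, Tween-20, DTT buffer, dark, 23° C., 1 h. Bound fraction recovered by SEC spin column, organic extraction, reversed-phase LC/MS. ASMS Ratio (%) = (A−C)/B×100 versus protein-free standard and SEC blank.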

T1 sequence (P10415 whole entry): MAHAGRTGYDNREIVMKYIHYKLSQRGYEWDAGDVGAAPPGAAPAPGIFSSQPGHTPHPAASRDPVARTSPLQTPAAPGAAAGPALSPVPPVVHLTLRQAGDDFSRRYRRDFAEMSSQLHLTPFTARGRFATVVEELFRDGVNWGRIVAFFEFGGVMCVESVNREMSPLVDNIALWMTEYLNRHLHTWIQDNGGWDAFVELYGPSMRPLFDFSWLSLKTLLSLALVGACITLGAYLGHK

Row | ASMS ratio (%) n = 1 | ASMS ratio (%) n = 2 | SMILES
1 | −0.7% | −1.6% | CCOc1cccc(-c2ccc(C(=O)N3CCN(c4ccc(C(=O)N(C)CC56CC7CC(CC(C7)C5)C6)cc4)CC3)cc2F)c1 [B3A027-01, N-(1-Adamantylmethyl)-4-[4-[4-(3-ethoxyphenyl)-3-fluorobenzoyl]piperazin-1-yl]-N-methylbenzamide]
2 | 9.8% | 1.6% | CCOc1cncc(-c2ccc(C(=O)N3CCN(c4ccc(C(=O)N(C)CC56CC7CC(CC(C7)C5)C6)cc4)CC3)cc2F)c1 [B3A028-01, N-(1-Adamantylmethyl)-4-[4-[4-(5-ethoxypyridin-3-yl)-3-fluorobenzoyl]piperazin-1-yl]-N-methylbenzamide]
3 | 0.0% | 0.0% | CCOc1cccc(C#Cc2ccccc2C(=O)N2CCN(c3ccc(C(=O)N(C)CC45CC6CC(CC(C6)C4)C5)cc3)CC2)c1 [B3A029-01, N-(1-Adamantylmethyl)-4-[4-[2-[2-(3-ethoxyphenyl)ethynyl]benzoyl]piperazin-1-yl]-N-methylbenzamide]
4 | 8.4% | −15.2% | CCOc1cncc(C#Cc2ccccc2C(=O)N2CCN(c3ccc(C(=O)N(C)CC45CC6CC(CC(C6)C4)C5)cc3)CC2)c1 [B3A030-01, N-(1-Adamantylmethyl)-4-[4-[2-[2-(5-ethoxypyridin-3-yl)ethynyl]benzoyl]piperazin-1-yl]-N-methylbenzamide]
5 | 8.4% | −15.2% | CCOc1cccc(C#Cc2cncc(C(=O)N3CCN(c4ccc(C(=O)N(C)CC56CC7CC(CC(C7)C5)C6)cc4)CC3)c2)c1 [B3A031-01, N-(1-Adamantylmethyl)-4-[4-[5-[2-(3-ethoxyphenyl)ethynyl]pyridine-3-carbonyl]piperazin-1-yl]-N-methylbenzamide]
6 | 9.1% | −5.1% | CCOc1cncc(C#Cc2cncc(C(=O)N3CCN(c4ccc(C(=O)N(C)CC56CC7CC(CC(C7)C5)C6)cc4)CC3)c2)c1 [B3A032-01, N-(1-Adamantylmethyl)-4-[4-[5-[2-(5-ethoxypyridin-3-yl)ethynyl]pyridine-3-carbonyl]piperazin-1-yl]-N-methylbenzamide]
7 | 1.1% | −0.6% | CCOc1cccc(-c2ccccc2CCC(=O)N2CCN(c3ccc(C(=O)N(C)CC45CC6CC(CC(C6)C4)C5)cc3)CC2)c1 [B3A033-01, N-(1-Adamantylmethyl)-4-[4-[3-[2-(3-ethoxyphenyl)phenyl]propanoyl]piperazin-1-yl]-N-methylbenzamide]
8 | 1.3% | −0.6% | CCOc1cncc(-c2ccccc2CCC(=O)N2CCN(c3ccc(C(=O)N(C)CC45CC6CC(CC(C6)C4)C5)cc3)CC2)c1 [B3A034-01, N-(1-Adamantylmethyl)-4-[4-[3-[2-(5-ethoxypyridin-3-yl)phenyl]propanoyl]piperazin-1-yl]-N-methylbenzamide]
9 | 9.7% | 4.4% | CCOc1cccc(-c2ccc(C(=O)N3CCN(c4ccc(C(=O)N(C)CC56CC7CC(CC(C7)C5)C6)cc4)CC3)c3ccccc23)c1 [B3A035-01, N-(1-Adamantylmethyl)-4-[4-[4-(3-ethoxyphenyl)naphthalene-1-carbonyl]piperazin-1-yl]-N-methylbenzamide]
10 | 2.8% | −3.3% | CCOc1cncc(-c2ccc(C(=O)N3CCN(c4ccc(C(=O)N(C)CC56CC7CC(CC(C7)C5)C6)cc4)CC3)c3ccccc23)c1 [B3A036-01, N-(1-Adamantylmethyl)-4-[4-[4-(5-ethoxypyridin-3-yl)naphthalene-1-carbonyl]piperazin-1-yl]-N-methylbenzamide]
11 | 0.0% | 0.0% | CCOc1cccc(-c2cc(C(=O)N3CCN(c4ccc(C(=O)N(C)CC56CC7CC(CC(C7)C5)C6)cc4)CC3)cc(C(C)(C)C)c2)c1 [B3A037-01, N-(1-Adamantylmethyl)-4-[4-[3-tert-butyl-5-(3-ethoxyphenyl)benzoyl]piperazin-1-yl]-N-methylbenzamide]
12 | 2.5% | −2.9% | CCOc1cncc(-c2cc(C(=O)N3CCN(c4ccc(C(=O)N(C)CC56CC7CC(CC(C7)C5)C6)cc4)CC3)cc(C(C)(C)C)c2)c1 [B3A038-01, N-(1-Adamantylmethyl)-4-[4-[3-tert-butyl-5-(5-ethoxypyridin-3-yl)benzoyl]piperazin-1-yl]-N-methylbenzamide]
13 | 3.8% | 0.0% | CCOc1cccc(-c2cc(C(=O)N3CCN(c4ccc(C(=O)N(C)CC56CC7CC(CC(C7)C5)C6)cc4)CC3)cc(C(F)(F)F)c2)c1 [B3A039-01, N-(1-Adamantylmethyl)-4-[4-[3-(3-ethoxyphenyl)-5-(trifluoromethyl)benzoyl]piperazin-1-yl]-N-methylbenzamide]
14 | 3.5% | −6.7% | CCOc1cncc(-c2cc(C(=O)N3CCN(c4ccc(C(=O)N(C)CC56CC7CC(CC(C7)C5)C6)cc4)CC3)cc(C(F)(F)F)c2)c1 [B3A040-01, N-(1-Adamantylmethyl)-4-[4-[3-(5-ethoxypyridin-3-yl)-5-(trifluoromethyl)benzoyl]piperazin-1-yl]-N-methylbenzamide]
15 |  | 425.9% | CCOc1cccc(C#Cc2cc(C(=O)N3CCN(c4ccc(C(=O)N(C)CC56CC7CC(CC(C7)C5)C6)cc4)CC3)cc(C(F)(F)F)c2)c1 [B3A041-01, N-(1-Adamantylmethyl)-4-[4-[3-[2-(3-ethoxyphenyl)ethynyl]-5-(trifluoromethyl)benzoyl]piperazin-1-yl]-N-methylbenzamide]
16 | −0.2% | −1.2% | CCOc1cncc(C#Cc2cc(C(=O)N3CCN(c4ccc(C(=O)N(C)CC56CC7CC(CC(C7)C5)C6)cc4)CC3)cc(C(F)(F)F)c2)c1 [B3A042-01, N-(1-Adamantylmethyl)-4-[4-[3-[2-(5-ethoxypyridin-3-yl)ethynyl]-5-(trifluoromethyl)benzoyl]piperazin-1-yl]-N-methylbenzamide]
17 | 0.5% | −0.3% | CCOc1cccc(-c2cnn(-c3cc(C(=O)N4CCN(c5ccc(C(=O)N(C)CC67CC8CC(CC(C8)C6)C7)cc5)CC4)cc(C(F)(F)F)c3)c2)c1 [B3A043-01, N-(1-Adamantylmethyl)-4-[4-[3-[4-(3-ethoxyphenyl)pyrazol-1-yl]-5-(trifluoromethyl)benzoyl]piperazin-1-yl]-N-methylbenzamide]
18 | 12.3% | −12.4% | CCOc1cncc(-c2cnn(-c3cc(C(=O)N4CCN(c5ccc(C(=O)N(C)CC67CC8CC(CC(C8)C6)C7)cc5)CC4)cc(C(F)(F)F)c3)c2)c1 [B3A044-01, N-(1-Adamantylmethyl)-4-[4-[3-[4-(5-ethoxypyridin-3-yl)pyrazol-1-yl]-5-(trifluoromethyl)benzoyl]piperazin-1-yl]-N-methylbenzamide]
19 | 3.2% | 2.5% | CCOc1cccc(-c2ccccc2CN2CCN(c3ccc(C(=O)N(C)CC45CC6CC(CC(C6)C4)C5)cc3)CC2)c1 [B3A045-01, N-(1-Adamantylmethyl)-4-[4-[[2-(3-ethoxyphenyl)phenyl]methyl]piperazin-1-yl]-N-methylbenzamide]
20 | 1.5% | 3.6% | CCOc1cncc(-c2ccccc2CN2CCN(c3ccc(C(=O)N(C)CC45CC6CC(CC(C6)C4)C5)cc3)CC2)c1 [B3A046-01, N-(1-Adamantylmethyl)-4-[4-[[2-(5-ethoxypyridin-3-yl)phenyl]methyl]piperazin-1-yl]-N-methylbenzamide]
21 | 1.8% | −5.9% | CCOc1cccc(-c2ccc(CN3CCN(c4ccc(C(=O)N(C)CC56CC7CC(CC(C7)C5)C6)cc4)CC3)cc2C)c1 [B3A047-01, N-(1-Adamantylmethyl)-4-[4-[[4-(3-ethoxyphenyl)-3-methylphenyl]methyl]piperazin-1-yl]-N-methylbenzamide]
22 | 7.3% | −8.8% | CCOc1cncc(-c2ccc(CN3CCN(c4ccc(C(=O)N(C)CC56CC7CC(CC(C7)C5)C6)cc4)CC3)cc2C)c1 [B3A048-01, N-(1-Adamantylmethyl)-4-[4-[[4-(5-ethoxypyridin-3-yl)-3-methylphenyl]methyl]piperazin-1-yl]-N-methylbenzamide]
23 | 6.1% | −4.3% | CCOc1cncc(-c2ccc(CN3CCN(c4ccc(C(=O)N(C)CC56CC7CC(CC(C7)C5)C6)cc4)CC3)c(CC)c2)c1 [B3A050-01, N-(1-Adamantylmethyl)-4-[4-[[4-(5-ethoxypyridin-3-yl)-2-ethylphenyl]methyl]piperazin-1-yl]-N-methylbenzamide]
24 | 21.3% | −4.2% | CCOc1cccc(-c2ccc(CN3CCN(c4ccc(C(=O)N(C)CC56CC7CC(CC(C7)C5)C6)cc4)CC3)cc2F)c1 [B3A051-01, N-(1-Adamantylmethyl)-4-[4-[[4-(3-ethoxyphenyl)-3-fluorophenyl]methyl]piperazin-1-yl]-N-methylbenzamide]
25 | 12.5% | 9.9% | CCOc1cccc(-c2ccc(CN3CCN(c4ccc(C(=O)N(C)CC56CC7CC(CC(C7)C5)C6)cc4)CC3)c(OC)c2)c1 [B3A053-01, N-(1-Adamantylmethyl)-4-[4-[[4-(3-ethoxyphenyl)-2-methoxyphenyl]methyl]piperazin-1-yl]-N-methylbenzamide]
26 | 0.0% | 0.0% | CCOc1cncc(-c2ccc(CN3CCN(c4ccc(C(=O)N(C)CC56CC7CC(CC(C7)C5)C6)cc4)CC3)c(OC)c2)c1 [B3A054-01, N-(1-Adamantylmethyl)-4-[4-[[4-(5-ethoxypyridin-3-yl)-2-methoxyphenyl]methyl]piperazin-1-yl]-N-methylbenzamide]
